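These data come from cells grown in 96-well plates and exposed to compound for 48 hours at five concentrations. GI50 = concentration required for 50% inhibition of growth. TGI is the concentration that stops growth completely.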
Assays:
Test in all cases: NCI anticancer screen, dose series, 48 h
NCI/ADR-RES ovarian = tested on: NCI/ADR-RES ovarian
M14 melanoma = tested on: M14 melanoma
UO-31 renal = tested on: UO-31 renal
UACC-62 melanoma = tested on: UACC-62 melanoma
SK-MEL-5 melanoma = tested on: SK-MEL-5 melanoma
KM12 colon = tested on: KM12 colon
786-0 renal = tested on: 786-0 renal
BT-549 breast = tested on: BT-549 breast
DU-145 prostate = tested on: DU-145 prostate
U251 CNS = tested on: U251 CNS
CAKI-1 renal = tested on: CAKI-1 renal
NCI-H23 lung = tested on: NCI-H23 lung
HOP-62 NSCLC = tested on: HOP-62 NSCLC
OVCAR-3 ovarian = tested on: OVCAR-3 ovarian
COLO 205 colon = tested on: COLO 205 colon
ACHN renal = tested on: ACHN renal
OVCAR-8 ovarian = tested on: OVCAR-8 ovarian
SNB-19 CNS = tested on: SNB-19 CNS
T-47D breast = tested on: T-47D breast
HT29 colon = tested on: HT29 colon
HS 578T breast = tested on: HS 578T breast
SK-OV-3 ovarian = tested on: SK-OV-3 ovarian
PC-3 prostate = tested on: PC-3 prostate
NCI-H460 lung = tested on: NCI-H460 lung
UACC-257 melanoma = tested on: UACC-257 melanoma
SK-MEL-2 melanoma = tested on: SK-MEL-2 melanoma
SNB-75 CNS = tested on: SNB-75 CNS
HCT-15 colon = tested on: HCT-15 colon
SF-539 CNS = tested on: SF-539 CNS
LOX IMVI melanoma = tested on: LOX IMVI melanoma
NCI-H522 lung = tested on: NCI-H522 lung
SK-MEL-28 melanoma = tested on: SK-MEL-28 melanoma
MOLT-4 leukemia = tested on: MOLT-4 leukemia
OVCAR-5 ovarian = tested on: OVCAR-5 ovarian
SN12C renal = tested on: SN12C renal
TK-10 renal = tested on: TK-10 renal
SF-268 CNS = tested on: SF-268 CNS
IGROV1 ovarian = tested on: IGROV1 ovarian
OVCAR-4 ovarian = tested on: OVCAR-4 ovarian
K-562 leukemia = tested on: K-562 leukemia
A498 renal = tested on: A498 renal
EKVX NSCLC = tested on: EKVX NSCLC
NCI-H226 lung = tested on: NCI-H226 lung
A549 NSCLC = tested on: A549 NSCLC
CCRF-CEM leukemia = tested on: CCRF-CEM leukemia
HCC-2998 colon = tested on: HCC-2998 colon
SF-295 CNS = tested on: SF-295 CNS
HCT-116 colon = tested on: HCT-116 colon
MDA-MB-435 = tested on: MDA-MB-435
MDA-MB-231 breast = tested on: MDA-MB-231 breast
SW-620 colon = tested on: SW-620 colon
RXF 393 renal = tested on: RXF 393 renal

## ClCc1ccc(Cn2cnc3c(Cl)nc(Cl)nc32)cc1
NCI/ADR-RES ovarian
  GI50: 16.5 µM
  TGI: > 100 µM
M14 melanoma
  GI50: 10.8 µM
  TGI: 24.1 µM
UO-31 renal
  GI50: 19.3 µM
  TGI: 35.5 µM
UACC-62 melanoma
  GI50: 2.06 µM
  TGI: 4.4 µM
SK-MEL-5 melanoma
  GI50: 6.49 µM
  TGI: 19.2 µM
KM12 colon
  GI50: 1.8 µM
  TGI: 3.23 µM
786-0 renal
  GI50: 14 µM
  TGI: 29.5 µM
BT-549 breast
  GI50: 15.8 µM
  TGI: 29.8 µM
DU-145 prostate
  GI50: 5.69 µM
  TGI: 17.8 µM
U251 CNS
  GI50: 2.05 µM
  TGI: 3.88 µM
CAKI-1 renal
  GI50: 9.17 µM
  TGI: 21.3 µM
NCI-H23 lung
  GI50: 7.62 µM
  TGI: 23.2 µM
HOP-62 NSCLC
  GI50: 2.19 µM
  TGI: 5.09 µM
OVCAR-3 ovarian
  GI50: 1.99 µM
  TGI: 4.33 µM
COLO 205 colon
  GI50: 3.45 µM
  TGI: > 100 µM
ACHN renal
  GI50: 2.35 µM
  TGI: 5.28 µM
OVCAR-8 ovarian
  GI50: 20 µM
  TGI: 38.3 µM
SNB-19 CNS
  GI50: 2.5 µM
  TGI: 7.04 µM
T-47D breast
  GI50: 2.18 µM
  TGI: 5.44 µM
HT29 colon
  GI50: 2.9 µM
  TGI: > 100 µM
HS 578T breast
  GI50: 2.13 µM
  TGI: 5.77 µM
SK-OV-3 ovarian
  GI50: 13.3 µM
  TGI: 29.6 µM
PC-3 prostate
  GI50: 2.7 µM
  TGI: 7.17 µM
NCI-H460 lung
  GI50: 2.39 µM
  TGI: 4.92 µM
UACC-257 melanoma
  GI50: 16.3 µM
  TGI: 33.5 µM
SK-MEL-2 melanoma
  GI50: 19.8 µM
  TGI: 43.5 µM
SNB-75 CNS
  GI50: 3.13 µM
  TGI: 9.32 µM
HCT-15 colon
  GI50: 1.86 µM
  TGI: 3.77 µM
SF-539 CNS
  GI50: 17.1 µM
  TGI: 31.1 µM
LOX IMVI melanoma
  GI50: 2.06 µM
  TGI: 4.13 µM
NCI-H522 lung
  GI50: 22.4 µM
  TGI: 46.8 µM
SK-MEL-28 melanoma
  GI50: 2.69 µM
  TGI: 6.99 µM
MOLT-4 leukemia
  GI50: 10.4 µM
  TGI: 27.4 µM
OVCAR-5 ovarian
  GI50: 18.2 µM
  TGI: 34.5 µM
SN12C renal
  GI50: 7.18 µM
  TGI: 20.8 µM
TK-10 renal
  GI50: 6.68 µM
  TGI: 20.3 µM
SF-268 CNS
  GI50: 2.51 µM
  TGI: 5.42 µM
IGROV1 ovarian
  GI50: 15.3 µM
  TGI: 30.4 µM
OVCAR-4 ovarian
  GI50: 4.91 µM
  TGI: 18.8 µM
K-562 leukemia
  GI50: 23.3 µM
  TGI: 66.5 µM
A498 renal
  GI50: 12.1 µM
  TGI: 25.1 µM
EKVX NSCLC
  GI50: 17.3 µM
  TGI: 31.8 µM
NCI-H226 lung
  GI50: 3.55 µM
  TGI: 9.63 µM
A549 NSCLC
  GI50: 18.6 µM
  TGI: 37.1 µM
CCRF-CEM leukemia
  GI50: 1.94 µM
  TGI: 4.53 µM
HCC-2998 colon
  GI50: 10.3 µM
  TGI: 24 µM
SF-295 CNS
  GI50: 7.2 µM
  TGI: 19.5 µM
HCT-116 colon
  GI50: 1.72 µM
  TGI: 3.6 µM
MDA-MB-435
  GI50: 12.6 µM
  TGI: 25.1 µM
MDA-MB-231 breast
  GI50: 1.81 µM
  TGI: 3.63 µM
SW-620 colon
  GI50: 3.79 µM
  TGI: 17.3 µM
RXF 393 renal
  GI50: 20.9 µM
  TGI: 41.5 µM

— PubChem BioAssay (NCI)
